pIC50: −log10 of the molar value. Where a name gives a salt, the structure may show the parent alone.

The first data set concerns SRS. Briefly: SRS antagonistic action in vitro (isolated guinea pig ileum shrinkage). To be noted: conc. attenuating control shrinkage to 50% (IC50), Tables 2-1 to 2-4, head prints no unit, read-out: Anti-SRS action [minimum effective conc.]. The method, then: The ileum end portion of a male Hartley-strain guinea pig weighing 200-450 g was extirpated and after washing its lumen, the ileum was mounted within 5 ml of a tissue bath containing a Tylord solution comprising the following components. […] For removing shrinkage with hystamine and acetylcholine, 10^-7 g/ml of mepylamin and 5×10^-8 g/ml of atropin were added to the above buffer. […] The ileum was loaded passively with 0.5 g of tension and the ileum shrinkage reaction to SRS extracted from guinea pig lung was obtained. The persistent shrinkage height by one unit of SRS (corresponding to 5 ng of hystamine) was used as control.
In the case of `O=C(O)[C@H]1CCCC[C@H]1C(=O)Nc1cccc(/C=C/c2nc3ccccc3s2)c1` (relative stereo) [compound 3], the pIC50 was 7.30.

With `O=C(O)C(=O)Nc1cccc(/C=C/c2nc3ccccc3s2)c1` [compound 168], the pIC50 is 7.00.

For `O=C(O)c1ccccc1C(=O)Nc1cccc(/C=C/c2nc3ccccc3s2)c1` [compound 2], the pIC50 is 8.30.

As to `CCCCCCc1csc(/C=C/c2cccc(NC(=O)c3ccccc3C(=O)O)c2)n1` [compound 287], the pIC50 is 4.70.

As for `COC(=O)CCC(=O)Nc1cccc(/C=C/c2nc3ccccc3s2)c1` [compound 192], the pIC50 was 6.30.

`Cc1cc(C(=O)O)c(C(=O)Nc2cccc(/C=C/c3nc(-c4ccccc4)cs3)c2)cc1C` [compound 253]: the pIC50 was 7.30.

Take `O=C(O)/C=C/C(=O)Nc1cccc(/C=C/c2nc3ccccc3s2)c1` [compound 167]: the pIC50 was 6.70.

For the molecule `CC(C)c1csc(/C=C/c2cccc(NC(=O)CC(C(=O)O)c3ccccc3)c2)n1` (stereo not shown) [compound 307], the pIC50 was 8.70.

With `CCCc1nc(/C=C/c2cccc(NC(=O)/C=C\C(=O)O)c2)sc1CC` [compound 332], the pIC50 was 7.00.

For the molecule `CCCCCCCc1csc(/C=C/c2cccc(NC(=O)c3ccccc3C(=O)O)c2)n1` [compound 291], the pIC50 is 7.00.

For the molecule `CCCCC(CC(=O)Nc1cccc(/C=C/c2nc3ccccc3s2)c1)C(=O)O` (stereo not shown) [compound 227], the pIC50 is 7.30.

On to `CC(C)(C)c1csc(/C=C/c2cccc(NC(=O)CCCC(=O)O)c2)n1` [compound 298], for which the pIC50 was 4.30.

Take `Cc1csc(/C=C/c2cccc(NC(=O)/C=C\C(=O)O)c2)n1` [compound 54]: the pIC50 was 6.30.

As for `CCc1nc(/C=C/c2cccc(NC(=O)c3cc(C)c(C)cc3C(=O)O)c2)sc1C` [compound 328], the pIC50 was 8.30.

Consider `Cc1ccc2sc(/C=C/c3cccc(NC(=O)c4ccccc4C(=O)O)c3)nc2c1` [compound 231], for which the pIC50 is 8.30.

As to `O=C(O)/C=C\C(=O)Nc1cccc(/C=C/c2nc(-c3ccccc3)cs2)c1` [compound 34], the pIC50 was 7.70.

Still in this data set, the particulars now being: conc. attenuating control shrinkage to 50% (IC50), Tables 2-6 to 2-11 and Table 3, read-out: Anti-SRS action [minimum effective conc. (M)].
Consider `OCCCCOc1cccc(/C=C/c2nc3ccccc3s2)c1` [compound 423, 2-[trans-3-(4-hydroxybutoxy)styryl]benzothiazole], for which the IC50 is 1e-05 M.

Regarding `O=C(CC1(C(=O)O)CCCCC1)Nc1cccc(CCc2nc3ccccc3s2)c1` [compound 358], the IC50 came out at 1e-08 M.

Regarding `O=C(O)/C=C\C(=O)Nc1cccc(NCc2nc3ccccc3s2)c1` [compound 150], the IC50 amounted to 2e-07 M.

For the molecule `Cc1nc(C=Cc2cccc(NCCCC(=O)O)c2)sc1C` [compound 377], the IC50 is 2e-07 M.

For the molecule `C(=C\c1nc2ccccc2s1)/c1cccc(NCCCc2nnn[nH]2)c1` [compound 424, 2-[trans-3-(3-(5-tetrazolyl)propylamino)styryl]benzothiazole], the IC50 is 5e-07 M.

With `O=C(O)/C=C\C(=O)Nc1cccc(OCc2nc3ccccc3s2)c1` [compound 368], the IC50 amounted to 1e-07 M.

Regarding `O=C(O)CCCCCc1cccc(/C=C/c2nc3ccccc3s2)c1` [compound 411], the IC50 amounted to 1e-05 M.

Regarding `CCCCc1csc(C=Cc2cccc(NCCCC(=O)O)c2)n1` [compound 389], the IC50 was 1e-07 M.

In the case of `O=C(O)/C=C\C(=O)Nc1cccc(/C=C/c2nc3ccccc3s2)c1` [compound 213, 2-[trans-3-(cis-3-carboxypropenamide)styryl]benzothiazole sodium salt], the IC50 was determined as 5e-08 M.

For `O=C(O)CCNc1cccc(/C=C/c2nc3ccccc3s2)c1` [compound 426, 2-[trans-3-(2-carboxyethylamino)styryl]benzothiazole sodium salt], the IC50 came out at 2e-07 M.

For the molecule `CCc1csc(C=Cc2cccc(NCCCC(=O)O)c2)n1` [compound 387], the IC50 was found to be 1e-08 M.

With `O=C(CCCO)Nc1cccc(/C=C/c2nc3ccccc3s2)c1` [compound 422, 2-[trans-3-(4-hydroxybutanoylamino)styryl]benzothiazole], the IC50 was found to be 1e-06 M.

As for `CCOC(=O)CCCNc1cccc(/C=C/c2nc3ccccc3s2)c1` [compound 199, 2-[trans-3-(3-ethoxycarbonylpropyl)aminostyryl]benzothiazole], the IC50 turned out to be 2e-07 M.

Take `O=C(O)CCCCNc1cccc(/C=C/c2nc3ccccc3s2)c1` [compound 398]: the IC50 was determined as 2e-07 M.

Take `CC(C)CCOC(=O)/C=C\C(=O)Nc1cccc(/C=C/c2nc3ccccc3s2)c1` [compound 189, 2-[trans-3-(cis-3-isoamyloxycarbonylpropenamide)styryl]benzothiazole]: the IC50 was 1e-06 M.

As for `O=C(O)/C=C\C(=O)Nc1cccc(COCc2nc3ccccc3s2)c1` [compound 369], the IC50 was 1e-05 M.

For the molecule `O=C(O)CCCNc1cccc(CCc2nc3ccccc3s2)c1` [compound 376], the IC50 is 5e-07 M.

`O=C(O)[C@H]1CCCC[C@H]1C(=O)Nc1cccc(/C=C/c2nc3ccccc3s2)c1` (relative stereo) [compound 414, 2-[trans-3-(cis-2-carboxycyclohexanoyl)aminostyryl]benzothiazole N-methyl-D-glucamine salt]: the IC50 came to 1e-06 M.

System in the next data set: not listed separately
Briefly: Acute toxicity test, oral. To be noted: mouse, in vivo, male ddy mice, 1% tragacanth suspension, 7 days. The protocol:
With 4 to 5 ddy-strain male mice of 6 weeks old as one group, the compound of the present invention was orally administered as a suspension in 1% tragacanth solution, and observation was conducted for 7 days and the number of dead mice was examined to obtain the results shown in Table 5.
In general, LD50 refers to the dose at which mortality reaches 50%. High values mean a less toxic substance, low ones a more toxic substance. `CCc1nc(/C=C/c2cccc(NC(=O)CCCC(=O)O)c2)sc1C` [compound 326]: the LD50 at 168 h was below 3000 mg/kg.

Take `O=C(O)[C@H]1CCCC[C@H]1C(=O)Nc1cccc(/C=C/c2nc(-c3ccccc3)cs2)c1` (relative stereo) [compound 248]: the LD50 at 168 h is above 3000 mg/kg.

Molecule `O=C(O)c1ccccc1C(=O)Nc1cccc(/C=C/c2nc3ccccc3s2)c1` [compound 2] yielded an LD50 at 168 h above 3000 mg/kg.

Turning to `Cc1nc(/C=C/c2cccc(NC(=O)[C@H]3CC=CC[C@H]3C(=O)O)c2)sc1C` (relative stereo) [compound 317], the LD50 at 168 h stood at 1030 mg/kg.

`CC(C)c1csc(/C=C/c2cccc(NC(=O)CCCC(=O)O)c2)n1` [compound 303] came in with an LD50 at 168 h of 2000 mg/kg.

`Cc1ccc2sc(/C=C/c3cccc(NC(=O)[C@@H]4CCCC[C@@H]4C(=O)O)c3)nc2c1` (relative stereo) [compound 232] registered an LD50 at 168 h of 3000 mg/kg. This LD50 at 168 h is about 1.5-fold higher than that of the molecule before.

Consider `O=C(O)[C@@H]1CCCC[C@H]1C(=O)Nc1cccc(/C=C/c2nc3ccccc3s2)c1` (relative stereo) [compound 418], for which the LD50 at 168 h was below 3000 mg/kg.

The molecule `CC(C)c1csc(/C=C/c2cccc(NC(=O)c3ccccc3C(=O)O)c2)n1` [compound 300] yielded an LD50 at 168 h of 1000 to 2000 mg/kg.

`O=C(O)c1ccccc1C(=O)Nc1cccc(/C=C/c2nc(-c3ccccc3)cs2)c1` [compound 247] came in with an LD50 at 168 h above 3000 mg/kg.

As for `O=C(O)[C@H]1CCCC[C@H]1C(=O)Nc1cccc(/C=C/c2nc3ccccc3s2)c1` (relative stereo) [compound 216], the LD50 at 168 h was above 3000 mg/kg.

`O=C(Nc1cccc(CCc2nc3ccccc3s2)c1)[C@H]1CCCC[C@H]1C(=O)O` (relative stereo) [compound 355] registered an LD50 at 168 h of 1930 mg/kg.

Take `Cc1nc(/C=C/c2cccc(NC(=O)[C@H]3CCCC[C@H]3C(=O)O)c2)sc1C` (relative stereo) [compound 315]: the LD50 at 168 h was in the range of 1000 to 2000 mg/kg.

With `Cc1nc(/C=C/c2cccc(NC(=O)/C=C\C(=O)O)c2)sc1C` [compound 313], the LD50 at 168 h came to 1560 mg/kg.

The molecule `O=C([O-])CCCNc1cccc(/C=C/c2nc3ccccc3s2)c1.[Na+]` showed an LD50 at 168 h of 2000 to 3000 mg/kg.

With `CCc1nc(/C=C/c2cccc(NC(=O)[C@H]3CCCC[C@H]3C(=O)O)c2)sc1C` (relative stereo) [compound 324], the LD50 at 168 h was 1380 mg/kg.

`CCCCCc1csc(/C=C/c2cccc(NC(=O)c3ccccc3C(=O)O)c2)n1` [compound 281] came in with an LD50 at 168 h above 3000 mg/kg.

On to `O=C(O)/C=C\C(=O)Nc1cccc(/C=C/c2nc3ccccc3s2)c1` [compound 213, 2-[trans-3-(cis-3-carboxypropenamide)styryl]benzothiazole sodium salt], for which the LD50 at 168 h is above 3000 mg/kg.

The molecule `O=C(O)[C@H]1CCCC[C@H]1C(=O)Nc1cccc(/C=C/c2nc3cc(Cl)ccc3s2)c1` (relative stereo) [compound 26] yielded an LD50 at 168 h above 3000 mg/kg.

In turn, `CCc1nc(/C=C/c2cccc(NC(=O)CCC(=O)O)c2)sc1C` [compound 325] gave an LD50 at 168 h of 2000 mg/kg.

Regarding `Cc1nc(/C=C/c2cccc(NC(=O)c3ccccc3C(=O)O)c2)sc1C` [compound 314], the LD50 at 168 h lay in the range of 2000 to 3000 mg/kg.

Regarding `O=C(O)/C=C\C(=O)Nc1cccc(CCc2nc3ccccc3s2)c1` [compound 353], the LD50 at 168 h turned out to be 3310 mg/kg.

`CCc1nc(C=Cc2cccc(NCCCC(=O)O)c2)sc1C` [compound 382] registered an LD50 at 168 h of 1930 mg/kg. This LD50 at 168 h is about 1.7-fold lower than that of the molecule before.

Consider `O=C(O)[C@H]1CC=CC[C@H]1C(=O)Nc1cccc(/C=C/c2nc(-c3ccccc3)cs2)c1` (relative stereo) [compound 249], for which the LD50 at 168 h was in the range of 1000 to 2000 mg/kg.

A further data set deals with LTD4. Briefly: LTD4 antagonistic action in vivo (airway resistance increase, Konzett-Roessler). More on the design: species or system guinea pig. To be noted: Cavia porcellus, read-out: Airway resistance increase inhibition.
In the case of `O=C([O-])CCCNc1cccc(/C=C/c2nc3ccccc3s2)c1.[Na+]` [sodium salt], the inhibition in vivo at 3 mg/kg stood at 55%.

The data set is the same for the next values; noted with them: Cavia porcellus; intraduodenal, 3 mg/kg; LTD4 0.1-1.0 μg/kg i.v.; read-out: Airway resistance increase inhibition.
As for `CCCCC(CC(=O)Nc1cccc(/C=C/c2nc3ccccc3s2)c1)C(=O)O` (stereo not shown) [compound 227], the inhibition in vivo at 3 mg/kg amounted to 71%.

As for `O=C(CC1(C(=O)O)CCCCC1)Nc1cccc(/C=C/c2nc3ccccc3s2)c1` [compound 223], the inhibition in vivo at 3 mg/kg was 87%.

The same data set, now with this note: Cavia porcellus; intraduodenal, 10 mg/kg; LTD4 0.1-1.0 μg/kg i.v.
Take `CCCc1csc(/C=C/c2cccc(NC(=O)c3ccccc3C(=O)O)c2)n1` [compound 272]: the inhibition in vivo at 10 mg/kg came out at 37%.

`CC(C)(C)c1csc(/C=C/c2cccc(NC(=O)CCC(=O)O)c2)n1` [compound 297] had an inhibition in vivo at 10 mg/kg of 62%.

The data set is the same for the next values; noted with them: Cavia porcellus; intraduodenal, 30 mg/kg; LTD4 0.1-1.0 μg/kg i.v.
In turn, `O=C(O)/C=C\C(=O)Nc1cccc(/C=C/c2nc3ccccc3s2)c1` [compound 213, 2-[trans-3-(cis-3-carboxypropenamide)styryl]benzothiazole sodium salt] came in with an inhibition in vivo at 30 mg/kg of 51%.

`O=C(O)/C=C\C(=O)Nc1cccc(CCc2nc3ccccc3s2)c1` [compound 353]: the inhibition in vivo at 30 mg/kg is 79%.

The values are drawn from patent US4902700A, “Thiazole derivative and leukotriene antagonist containing the same as the effective ingredients” (Mitsubishi Kasei Corporation, priority 1985, dated 1990).
